In the supplement of paper PMC10307832:

How the values were obtained:
Assay in all cases: relative viability (nuclei count vs DMSO), 5 days (fraction); higher = more cells survive
[1] = tested on: ABC-1
Method in brief: (§1)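 A single step with final 0.05% Triton X-100, 1% formaldehyde and 1 ug/ml Hoechst fixed the cells and stained nuclei 5 days after treatment. Lung cancer cell lines in 1536-well plates had been treated by pin tool the day after seeding with one drug alone or a fixed anchor-drug dose plus five library-drug doses (not always all listed) in √10 steps, and nuclei were counted on 4× images. Relative viability is the ratio of nuclei in treated wells to nuclei in vehicle wells, taken as the median of duplicate plates.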

[2] = tested on: BEN
Method in brief: as §1

[3] = tested on: EPLC-272H
Method in brief: as §1

[4] = tested on: HCC-827
Method in brief: as §1

[5] = tested on: HOP-62
Method in brief: as §1

[6] = tested on: LU99A
Method in brief: as §1

[7] = tested on: NCI-H1355
Method in brief: as §1

[8] = tested on: NCI-H1666
Method in brief: as §1

[9] = tested on: NCI-H1792
Method in brief: as §1

[10] = tested on: NCI-H1975
Method in brief: as §1

[11] = tested on: NCI-H2170
Method in brief: as §1

[12] = tested on: NCI-H23
Method in brief: as §1

[13] = tested on: NCI-H2405
Method in brief: as §1

[14] = tested on: NCI-H3122
Method in brief: as §1

[15] = tested on: NCI-H322M
Method in brief: as §1

[16] = tested on: NCI-H358
Method in brief: as §1

[17] = tested on: NCI-H520
Method in brief: as §1

[18] = tested on: NCI-H596
Method in brief: as §1

[19] = tested on: NCI-H647
Method in brief: as §1

[20] = tested on: NCI-H727
Method in brief: as §1

[21] = tested on: NCI-H838
Method in brief: as §1

[22] = tested on: PC-14
Method in brief: as §1

[23] = tested on: UMC-11
Method in brief: as §1

Q: Cc1cnc(-c2cnc(NCCNc3ccc(C#N)cn3)nc2-c2ccc(Cl)cc2Cl)[nH]1 + O=C(c1cc(Cc2n[nH]c(=O)c3ccccc23)ccc1F)N1CCN(C(=O)C2CC2)CC1 [Olaparib] (partner 8 µM) was tested. Which relative viability ([1]; first compound 0.08 µM) did it give?
A: The relative viability was 0.788.

Q: And the relative viability ([1]; first compound 0.253 µM)?
A: Its relative viability is 0.834.

Q: And the relative viability ([1]; first compound 0.8 µM)?
A: Its relative viability is 0.78.

Q: And the relative viability ([1]; first compound 2.53 µM)?
A: Its relative viability is 0.763.

Q: And the relative viability ([2]; first compound 0.08 µM)?
A: Its relative viability is 1.17.

Q: And the relative viability ([2]; first compound 0.253 µM)?
A: Its relative viability is 1.04.

Q: And the relative viability ([2]; first compound 0.8 µM)?
A: The relative viability was 0.973.

Q: And the relative viability ([2]; first compound 2.53 µM)?
A: Its relative viability is 0.978.

Q: What about the relative viability ([3]; first compound 0.08 µM) of the same compound?
A: Its relative viability is 0.731.

Q: And the relative viability ([3]; first compound 0.253 µM)?
A: Its relative viability is 0.779.

Q: And the relative viability ([3]; first compound 0.8 µM)?
A: The relative viability was 0.739.

Q: And the relative viability ([3]; first compound 2.53 µM)?
A: The relative viability was 0.666.

Q: And the relative viability ([4]; first compound 0.08 µM)?
A: The relative viability was 0.582.

Q: And the relative viability ([4]; first compound 0.253 µM)?
A: The relative viability was 0.514.

Q: And the relative viability ([4]; first compound 0.8 µM)?
A: Its relative viability is 0.572.

Q: And the relative viability ([4]; first compound 2.53 µM)?
A: The relative viability was 0.561.

Q: What about the relative viability ([5]; first compound 0.08 µM) of the same compound?
A: Its relative viability is 0.354.

Q: And the relative viability ([5]; first compound 0.253 µM)?
A: The relative viability was 0.362.

Q: And the relative viability ([5]; first compound 0.8 µM)?
A: Its relative viability is 0.502.

Q: What about the relative viability ([5]; first compound 2.53 µM) of the same compound?
A: The relative viability was 0.324.

Q: What about the relative viability ([6]; first compound 0.08 µM) of the same compound?
A: Its relative viability is 0.254.

Q: And the relative viability ([6]; first compound 0.253 µM)?
A: Its relative viability is 0.256.

Q: What about the relative viability ([6]; first compound 0.8 µM) of the same compound?
A: Its relative viability is 0.231.

Q: What about the relative viability ([6]; first compound 2.53 µM) of the same compound?
A: The relative viability was 0.253.

Q: What about the relative viability ([7]; first compound 0.08 µM) of the same compound?
A: The relative viability was 0.793.

Q: What about the relative viability ([7]; first compound 0.253 µM) of the same compound?
A: The relative viability was 0.648.

Q: And the relative viability ([7]; first compound 0.8 µM)?
A: Its relative viability is 0.749.

Q: And the relative viability ([7]; first compound 2.53 µM)?
A: The relative viability was 0.716.

Q: And the relative viability ([8]; first compound 0.08 µM)?
A: The relative viability was 0.775.

Q: What about the relative viability ([8]; first compound 0.253 µM) of the same compound?
A: Its relative viability is 0.732.

Q: And the relative viability ([8]; first compound 0.8 µM)?
A: Its relative viability is 0.765.

Q: And the relative viability ([8]; first compound 2.53 µM)?
A: Its relative viability is 0.781.

Q: And the relative viability ([9]; first compound 0.08 µM)?
A: The relative viability was 0.377.

Q: What about the relative viability ([9]; first compound 0.253 µM) of the same compound?
A: The relative viability was 0.357.

Q: And the relative viability ([9]; first compound 0.8 µM)?
A: The relative viability was 0.345.

Q: What about the relative viability ([9]; first compound 2.53 µM) of the same compound?
A: Its relative viability is 0.397.

Q: What about the relative viability ([10]; first compound 0.08 µM) of the same compound?
A: The relative viability was 0.759.

Q: And the relative viability ([10]; first compound 0.253 µM)?
A: The relative viability was 0.715.

Q: What about the relative viability ([10]; first compound 0.8 µM) of the same compound?
A: The relative viability was 0.672.

Q: And the relative viability ([10]; first compound 2.53 µM)?
A: The relative viability was 0.502.

Q: What about the relative viability ([11]; first compound 0.08 µM) of the same compound?
A: The relative viability was 0.601.

Q: What about the relative viability ([11]; first compound 0.8 µM) of the same compound?
A: Its relative viability is 0.518.

Q: What about the relative viability ([11]; first compound 2.53 µM) of the same compound?
A: Its relative viability is 0.519.

Q: And the relative viability ([12]; first compound 0.08 µM)?
A: Its relative viability is 0.316.

Q: What about the relative viability ([12]; first compound 0.253 µM) of the same compound?
A: Its relative viability is 0.297.

Q: And the relative viability ([12]; first compound 0.8 µM)?
A: Its relative viability is 0.303.

Q: What about the relative viability ([12]; first compound 2.53 µM) of the same compound?
A: Its relative viability is 0.367.

Q: What about the relative viability ([13]; first compound 0.08 µM) of the same compound?
A: The relative viability was 0.882.

Q: What about the relative viability ([13]; first compound 0.253 µM) of the same compound?
A: The relative viability was 0.771.

Q: What about the relative viability ([13]; first compound 0.8 µM) of the same compound?
A: The relative viability was 0.88.

Q: What about the relative viability ([13]; first compound 2.53 µM) of the same compound?
A: The relative viability was 0.661.

Q: And the relative viability ([14]; first compound 0.08 µM)?
A: The relative viability was 0.568.

Q: And the relative viability ([14]; first compound 0.8 µM)?
A: Its relative viability is 0.651.

Q: And the relative viability ([14]; first compound 2.53 µM)?
A: The relative viability was 0.545.

Q: What about the relative viability ([15]; first compound 0.08 µM) of the same compound?
A: Its relative viability is 0.768.

Q: What about the relative viability ([15]; first compound 0.253 µM) of the same compound?
A: The relative viability was 0.733.

Q: And the relative viability ([15]; first compound 0.8 µM)?
A: Its relative viability is 0.638.

Q: And the relative viability ([15]; first compound 2.53 µM)?
A: Its relative viability is 0.637.

Q: What about the relative viability ([16]; first compound 0.08 µM) of the same compound?
A: The relative viability was 0.578.

Q: And the relative viability ([16]; first compound 0.253 µM)?
A: The relative viability was 0.522.

Q: What about the relative viability ([16]; first compound 0.8 µM) of the same compound?
A: Its relative viability is 0.555.

Q: What about the relative viability ([16]; first compound 2.53 µM) of the same compound?
A: Its relative viability is 0.517.

Q: And the relative viability ([17]; first compound 0.08 µM)?
A: Its relative viability is 0.366.

Q: And the relative viability ([17]; first compound 0.253 µM)?
A: Its relative viability is 0.3.

Q: And the relative viability ([17]; first compound 0.8 µM)?
A: Its relative viability is 0.354.

Q: And the relative viability ([17]; first compound 2.53 µM)?
A: The relative viability was 0.311.

Q: And the relative viability ([18]; first compound 0.08 µM)?
A: The relative viability was 1.09.

Q: What about the relative viability ([18]; first compound 0.253 µM) of the same compound?
A: Its relative viability is 0.736.

Q: And the relative viability ([18]; first compound 0.8 µM)?
A: Its relative viability is 0.775.

Q: What about the relative viability ([18]; first compound 2.53 µM) of the same compound?
A: The relative viability was 0.724.

Q: And the relative viability ([19]; first compound 0.08 µM)?
A: Its relative viability is 0.528.

Q: And the relative viability ([19]; first compound 0.253 µM)?
A: Its relative viability is 0.558.

Q: And the relative viability ([19]; first compound 0.8 µM)?
A: Its relative viability is 0.528.

Q: What about the relative viability ([19]; first compound 2.53 µM) of the same compound?
A: Its relative viability is 0.429.

Q: What about the relative viability ([20]; first compound 0.08 µM) of the same compound?
A: The relative viability was 0.69.

Q: And the relative viability ([20]; first compound 0.253 µM)?
A: The relative viability was 0.768.

Q: And the relative viability ([20]; first compound 0.8 µM)?
A: The relative viability was 0.711.

Q: And the relative viability ([20]; first compound 2.53 µM)?
A: Its relative viability is 0.735.

Q: What about the relative viability ([21]; first compound 0.08 µM) of the same compound?
A: Its relative viability is 0.756.

Q: And the relative viability ([21]; first compound 0.253 µM)?
A: The relative viability was 0.768.

Q: What about the relative viability ([21]; first compound 0.8 µM) of the same compound?
A: The relative viability was 0.796.

Q: What about the relative viability ([21]; first compound 2.53 µM) of the same compound?
A: Its relative viability is 0.75.

Q: What about the relative viability ([22]; first compound 0.08 µM) of the same compound?
A: Its relative viability is 0.242.

Q: And the relative viability ([22]; first compound 0.253 µM)?
A: Its relative viability is 0.235.

Q: What about the relative viability ([22]; first compound 0.8 µM) of the same compound?
A: Its relative viability is 0.296.

Q: What about the relative viability ([22]; first compound 2.53 µM) of the same compound?
A: Its relative viability is 0.233.

Q: What about the relative viability ([23]; first compound 0.08 µM) of the same compound?
A: Its relative viability is 0.413.

Q: What about the relative viability ([23]; first compound 0.253 µM) of the same compound?
A: The relative viability was 0.997.

Q: What about the relative viability ([23]; first compound 0.8 µM) of the same compound?
A: Its relative viability is 0.343.

Q: What about the relative viability ([23]; first compound 2.53 µM) of the same compound?
A: The relative viability was 0.352.
